Data reported in PubChem BioAssay (NCI).
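In this assay, cells in 96-well plates receive the compound at five concentrations for 48 hours. Endpoints are linearly interpolated between the surrounding concentrations. GI50 marks 50% less growth. Definition used: TGI = concentration required for complete inhibition of growth.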

Experiments:
Assay in all cases: inhibition of tumour cell growth, NCI panel, 48 h
UACC-257 melanoma = test system: UACC-257 melanoma
MDA-MB-231 breast = test system: MDA-MB-231 breast
UACC-62 melanoma = test system: UACC-62 melanoma
A549 NSCLC = test system: A549 NSCLC
NCI/ADR-RES ovarian = test system: NCI/ADR-RES ovarian
SW-620 colon = test system: SW-620 colon
OVCAR-8 ovarian = test system: OVCAR-8 ovarian
NCI-H522 lung = test system: NCI-H522 lung
SNB-75 CNS = test system: SNB-75 CNS
HL-60(TB) leukemia = test system: HL-60(TB) leukemia

| Structure (SMILES) | TGI (UACC-257 melanoma) [µM] | TGI (MDA-MB-231 breast) [µM] | TGI (UACC-62 melanoma) [µM] | TGI (A549 NSCLC) [µM] | TGI (NCI/ADR-RES ovarian) [µM] | TGI (SW-620 colon) [µM] | TGI (OVCAR-8 ovarian) [µM] | TGI (NCI-H522 lung) [µM] | TGI (SNB-75 CNS) [µM] | TGI (HL-60(TB) leukemia) [µM] | GI50 (UACC-257 melanoma) [µM] | GI50 (HL-60(TB) leukemia) [µM] | GI50 (MDA-MB-231 breast) [µM] | GI50 (UACC-62 melanoma) [µM] | GI50 (A549 NSCLC) [µM] | GI50 (NCI/ADR-RES ovarian) [µM] | GI50 (SW-620 colon) [µM] | GI50 (OVCAR-8 ovarian) [µM] | GI50 (NCI-H522 lung) [µM] | GI50 (SNB-75 CNS) [µM] |
| --- | --- | --- | --- | --- | --- | --- | --- | --- | --- | --- | --- | --- | --- | --- | --- | --- | --- | --- | --- | --- |
| CC(=O)O[C@H]1C[C@@H](OC(C)=O)[C@@](C)(O)[C@@H]2[C@@H](OC(C)=O)[C@@]3(O)[C@H](/C=C(/CCl)[C@H]4O[C@H]4[C@@H](OC(C)=O)[C@@]12C)OC(=O)[C@@H]3C | > 25 | > 25 | > 25 | > 25 | > 25 | > 25 | > 25 | > 25 | > 25 |  |  |  |  |  |  |  |  |  |  |  |
| CON(C)C(=O)C(C)NC(=O)OC(C)(C)C (centres undefined) | > 100 |  | > 100 | > 100 | > 100 | > 100 | > 100 |  | > 100 | > 100 |  |  |  |  |  |  |  |  |  |  |
| CCN(CC)C(=S)SSCCO | 48.6 | 30.3 | 29.2 | > 100 | 32.5 | 26.5 | 38.7 | 20.3 | 28 | 8.96 | 19.1 | 2.17 | 15.3 | 15.3 | 79.9 | 17.1 | 13.6 | 19.3 | 0.211 | 14.8 |
| FC(F)(F)c1cnc(N/N=C(/c2ccccc2)c2ccccn2)c(Cl)c1 | 11.5 | 32 | 23.1 | 14.8 | 6.92 | > 100 | 5.79 | 4.74 | 16 |  |  |  |  |  |  |  |  |  |  |  |
| Nc1c(C(=O)c2ccccc2)nnc2ccccc12 | 90.8 | 53.3 | 45 | > 100 | 64.6 | > 100 | > 100 |  |  |  |  |  |  |  |  |  |  |  |  |  |
| CC(=O)O[C@H]1C[C@H]2[C@@H]([C@H](OC(C)=O)C[C@@H]3CC4(CC[C@@]32C)OOC2(CCCCC2)OO4)[C@@H]2CC[C@H]([C@H](C)CCC(=O)O)[C@@]12C | 25 | 34.1 |  | 12.8 | 19 | 30 | 16.1 | 9.36 | 14.8 | 15.1 |  |  |  |  |  |  |  |  |  |  |
| Cc1cc(OC(=O)Nc2ccc(Cl)cc2)ccc1C(=S)Nc1ccccc1 | > 100 |  | > 100 | > 100 | > 100 | > 100 | > 100 | > 100 | > 100 | 53.7 |  |  |  |  |  |  |  |  |  |  |
| CSc1nc(C)cc(=O)n1C1OC(COC(C)=O)C(OC(C)=O)C(OC(C)=O)C1OC(C)=O (centres undefined) | > 100 |  | > 100 | > 100 |  | > 100 | > 100 | > 100 | > 100 | > 100 |  |  |  |  |  |  |  |  |  |  |
| C=C1C(=O)O[C@@H]2[C@H]1C[C@H](I)[C@@]1(C)CC[C@H](O1)[C@](C)(I)CCCC(C)[C@@H]2O (some centres undefined) | 20.1 | 16.3 | 16.4 | 26.9 | 9.84 | 3.51 | 8.12 | 1.59 | 21.3 | 4.54 |  |  |  |  |  |  |  |  |  |  |
| CC(C)CCCC(C)[C@H]1CCC2[C@@H]3CCC4Cc5nc6c(nc5C[C@]4(C)C3CC[C@@]21C)CC1CC[C@@H]2C(CC[C@@]3(C)C2CC[C@@H]3O)[C@@]1(C)C6 (some centres undefined) | > 100 | > 100 | > 100 | > 100 | > 100 | > 100 | > 100 |  | > 100 | > 100 |  |  |  |  |  |  |  |  |  |  |
| CCN(CC)Cc1ccc(Nc2c3ccccc3nc3ccccc23)cc1 | 3.21 | 4.64 | 3.66 | 2.82 | 22.4 | 4.12 | 15 | 3.56 |  | > 100 |  |  |  |  |  |  |  |  |  |  |
| Cn1cnnc1SC(F)(F)c1nc2ccccc2o1 | > 100 | > 100 | > 100 | > 100 | > 100 | > 100 | > 100 | > 100 | > 100 |  |  |  |  |  |  |  |  |  |  |  |
| CC(=O)c1sc2c(c1O)c(=O)n(-c1ccccc1)c(=S)n2-c1ccccc1 | > 100 | > 100 | > 100 | > 100 |  | > 100 | > 100 | > 100 | > 100 | > 100 |  |  |  |  |  |  |  |  |  |  |
| C=CC1(O)CCCC=C1COCc1ccccc1 (centres undefined) | > 100 | > 100 | > 100 | > 100 | > 100 |  | > 100 | 32.4 | > 100 | 72.2 |  |  |  |  |  |  |  |  |  |  |
| COc1cc(S(=O)(=O)Nc2ccc(-c3csc(/N=C\c4cccs4)n3)cc2)ccc1Cl | > 100 | > 100 | 92.2 | > 100 | > 100 | > 100 | > 100 | > 100 | 81.5 |  |  |  |  |  |  |  |  |  |  |  |
| O=C(/C=C/c1cccs1)c1ccc([N+](=O)[O-])cc1 | > 100 | > 100 | > 100 | > 100 | > 100 | > 100 | > 100 |  | > 100 | > 100 |  |  |  |  |  |  |  |  |  |  |
| N=C(N)c1ccc(N=Nc2c(O)ccc3cc(O)ccc23)cc1 | > 100 | > 100 | > 100 | > 100 | > 100 | > 100 | > 100 | > 100 |  | > 100 |  |  |  |  |  |  |  |  |  |  |
| CC(N)=O.[Cl][Pt][Cl].[NH-]c1ccn(C2OC(CO)C(O)C2O)c(=O)n1 (centres undefined) | > 100 | > 100 | > 100 | > 100 | > 100 | > 100 | > 100 | > 100 | > 100 |  |  |  |  |  |  |  |  |  |  |  |
| COc1cccc(-c2[nH]c3cc4c(cc3c(=O)c2C(=O)O)OCO4)c1 | > 100 | > 100 | > 100 | > 100 | 47.3 | > 100 | 65.9 |  | > 100 |  |  |  |  |  |  |  |  |  |  |  |
| Cn1c(=O)n2n(c1=O)C(S(=O)c1ccccc1)C2 (centres undefined) | > 100 | > 100 | > 100 | > 100 | > 100 | > 100 | > 100 | > 100 | > 100 |  |  |  |  |  |  |  |  |  |  |  |
| COc1ccc(/C=N/n2c(Cc3ccccc3)n[nH]c2=O)cc1 | > 100 | > 100 | > 100 | > 100 | > 100 | > 100 | > 100 |  | > 100 |  |  |  |  |  |  |  |  |  |  |  |
| C/C(=N\Nc1nc2ccccc2n1C)c1ccc2ccccc2n1 | > 47 | 28.8 | 9.79 | 16.1 | 6.71 | 25.8 | > 100 | 19.6 | 46.4 |  |  |  |  |  |  |  |  |  |  |  |
